A word on the inhibition: it is the relative decrease from the control value, in per cent. As a reminder, the melting point is the temperature of the solid-liquid transition.

Experimental findings from US8785452B2, “Anti-infective compounds” (priority 2008, dated 2014) are described below.

For one data set, the system named is M. tuberculosis H37Rv-GFP. The data set can be described thus: microbe, parasite or virus in culture. As to conditions: Mycobacterium tuberculosis, H37RV, Macrophage; confirmation, 20 uM; read-out: QIM Confirm % Inhibition 20 uM. The data set is classed as cell-based, Mycobacterium tuberculosis.
Turning to `COc1c(O)cc(/C=N/NC(=O)c2ccncc2)cc1Br` [IPK 000 078 30], the inhibition at 20 µM amounted to 105%.

For the molecule `Cc1ccc(NC(=O)c2ccc([N+](=O)[O-])cc2Cl)cc1Cl` [IPK 000 047 16], the inhibition at 20 µM was 85.1%.

Consider `C=CCn1c(Cc2ccccc2)nc2c(cnn2-c2ccccc2)c1=O` [IPK 000 073 11], for which the inhibition at 20 µM turned out to be 56.1%.

Take `COc1ccc(OC)c(/C=N/NC(=O)c2ccncc2)c1` [IPK 000 042 93]: the inhibition at 20 µM turned out to be 106%.

With `COc1cc(/C=N/NC(=O)c2ccncc2)cc(Br)c1OC` [IPK 000 078 53], the inhibition at 20 µM was 107%.

Take `O=C(N/N=C/c1cccc(Cl)c1Cl)c1ccncc1` [IPK 000 043 10]: the inhibition at 20 µM came to 98.3%.

As to `Cc1ccc(NC(=O)c2c(NC(=O)C(F)(F)F)sc3c2CCC3)c(C)c1` [IPK 000 077 22], the inhibition at 20 µM turned out to be 46.6%.

Regarding `CCN1C/C(=C\c2ccc3c(c2)OCO3)C(=O)/C(=C/c2ccc3c(c2)OCO3)C1` [IPK 000 102 52], the inhibition at 20 µM worked out at 68.1%.

As for `CC(NC(=O)c1ccc(C(C)(C)C)cc1)c1ccccc1` (centres unmarked) [IPK 000 067 61], the inhibition at 20 µM stood at 68.5%.

As to `Cc1cccc(NC(=O)c2c(NC(=O)c3ccccc3Cl)sc3c2CCC3)c1` [IPK 000 073 70], the inhibition at 20 µM was 103%.

In the case of `O=C(Nc1cc(Cl)cc(Cl)c1)c1cc([N+](=O)[O-])ccc1Cl` [IPK 000 049 20], the inhibition at 20 µM is 88.6%.

Regarding `O=[N+]([O-])c1cc2c(cc1/C=N/c1ccc(S(=O)(=O)Nc3nccs3)cc1)OCO2` [IPK 000 057 78], the inhibition at 20 µM was 35.5%.

For the molecule `CCOc1ccccc1/C=N/NC(=O)c1ccncc1` [IPK 000 043 27], the inhibition at 20 µM amounted to 102%.

Staying with this data set, now noted: Mycobacterium tuberculosis, H37RV, Macrophage; primary screen, 20 μM; read-out: Primary QIM % Inhibition.
In the case of `COc1c(O)cc(/C=N/NC(=O)c2ccncc2)cc1Br` [IPK 000 078 30], the inhibition at 20 µM was determined as 108%.

As to `Cc1ccc(NC(=O)c2ccc([N+](=O)[O-])cc2Cl)cc1Cl` [IPK 000 047 16], the inhibition at 20 µM turned out to be 69.4%.

For the molecule `C=CCn1c(Cc2ccccc2)nc2c(cnn2-c2ccccc2)c1=O` [IPK 000 073 11], the inhibition at 20 µM turned out to be 49.1%.

`COc1ccc(OC)c(/C=N/NC(=O)c2ccncc2)c1` [IPK 000 042 93]: the inhibition at 20 µM came to 109%.

Regarding `COc1cc(/C=N/NC(=O)c2ccncc2)cc(Br)c1OC` [IPK 000 078 53], the inhibition at 20 µM was determined as 84%.

For the molecule `O=C(N/N=C/c1cccc(Cl)c1Cl)c1ccncc1` [IPK 000 043 10], the inhibition at 20 µM was 14.3%.

Take `Cc1ccc(NC(=O)c2c(NC(=O)C(F)(F)F)sc3c2CCC3)c(C)c1` [IPK 000 077 22]: the inhibition at 20 µM was -33%.

With `CCN1C/C(=C\c2ccc3c(c2)OCO3)C(=O)/C(=C/c2ccc3c(c2)OCO3)C1` [IPK 000 102 52], the inhibition at 20 µM worked out at 70.4%.

`CC(NC(=O)c1ccc(C(C)(C)C)cc1)c1ccccc1` (centres unmarked) [IPK 000 067 61]: the inhibition at 20 µM was determined as 84.3%.

On to `Cc1cccc(NC(=O)c2c(NC(=O)c3ccccc3Cl)sc3c2CCC3)c1` [IPK 000 073 70], for which the inhibition at 20 µM was determined as 88.6%.

Take `O=C(Nc1cc(Cl)cc(Cl)c1)c1cc([N+](=O)[O-])ccc1Cl` [IPK 000 049 20]: the inhibition at 20 µM amounted to 71.5%.

For `O=[N+]([O-])c1cc2c(cc1/C=N/c1ccc(S(=O)(=O)Nc3nccs3)cc1)OCO2` [IPK 000 057 78], the inhibition at 20 µM is -10.9%.

Regarding `CCOc1ccccc1/C=N/NC(=O)c1ccncc1` [IPK 000 043 27], the inhibition at 20 µM was found to be 47.6%.

A further data set relates to Raw264.7 cells.
Test: not given
As to conditions: mouse, 5 days, 0.2 uM.
`C=CCn1c(Cc2ccccc2)nc2c(cnn2-c2ccccc2)c1=O` [IPK 000 073 11]: the “QIM Confirm CellNb 0.2 uM” value is given as 67.2.

Still in this data set, the particulars now being: mouse, 5 days, 20 μM.
Turning to `COc1c(O)cc(/C=N/NC(=O)c2ccncc2)cc1Br` [IPK 000 078 30], the “Primary QIM CellNb” value was determined as 97.0.

Take `Cc1ccc(NC(=O)c2ccc([N+](=O)[O-])cc2Cl)cc1Cl` [IPK 000 047 16]: the “Primary QIM CellNb” value is 77.9.

On to `C=CCn1c(Cc2ccccc2)nc2c(cnn2-c2ccccc2)c1=O` [IPK 000 073 11], for which the “Primary QIM CellNb” value was −10.5.

As for `COc1ccc(OC)c(/C=N/NC(=O)c2ccncc2)c1` [IPK 000 042 93], the “Primary QIM CellNb” value is on record as 105.1.

For `COc1cc(/C=N/NC(=O)c2ccncc2)cc(Br)c1OC` [IPK 000 078 53], the “Primary QIM CellNb” value is reported as 95.6.

As for `O=C(N/N=C/c1cccc(Cl)c1Cl)c1ccncc1` [IPK 000 043 10], the “Primary QIM CellNb” value came to 92.7.

As for `Cc1ccc(NC(=O)c2c(NC(=O)C(F)(F)F)sc3c2CCC3)c(C)c1` [IPK 000 077 22], the “Primary QIM CellNb” value is on record as 33.3.

Consider `CCN1C/C(=C\c2ccc3c(c2)OCO3)C(=O)/C(=C/c2ccc3c(c2)OCO3)C1` [IPK 000 102 52], for which the “Primary QIM CellNb” value is given as −7.0.

Consider `CC(NC(=O)c1ccc(C(C)(C)C)cc1)c1ccccc1` (centres unmarked) [IPK 000 067 61], for which the “Primary QIM CellNb” value is recorded as 28.2.

Take `Cc1cccc(NC(=O)c2c(NC(=O)c3ccccc3Cl)sc3c2CCC3)c1` [IPK 000 073 70]: the “Primary QIM CellNb” value is on record as 56.7.

As to `O=C(Nc1cc(Cl)cc(Cl)c1)c1cc([N+](=O)[O-])ccc1Cl` [IPK 000 049 20], the “Primary QIM CellNb” value came out at 54.8.

As for `O=[N+]([O-])c1cc2c(cc1/C=N/c1ccc(S(=O)(=O)Nc3nccs3)cc1)OCO2` [IPK 000 057 78], the “Primary QIM CellNb” value turned out to be 12.6.

For the molecule `CCOc1ccccc1/C=N/NC(=O)c1ccncc1` [IPK 000 043 27], the “Primary QIM CellNb” value is 105.2.

A further data set relates to Raw264.7 cells. The data set can be described thus: Cell number (CellNb) from image analysis of the phenotypic cell-based assay. The note with it: primary screen, 20 μM.
Consider `COc1c(O)cc(/C=N/NC(=O)c2ccncc2)cc1Br` [IPK 000 078 30], for which the “Primary QIM CellNb” value stood at 388.3.

Turning to `Cc1ccc(NC(=O)c2ccc([N+](=O)[O-])cc2Cl)cc1Cl` [IPK 000 047 16], the “Primary QIM CellNb” value is on record as 280.5.

For `C=CCn1c(Cc2ccccc2)nc2c(cnn2-c2ccccc2)c1=O` [IPK 000 073 11], the “Primary QIM CellNb” value was 147.8.

On to `COc1ccc(OC)c(/C=N/NC(=O)c2ccncc2)c1` [IPK 000 042 93], for which the “Primary QIM CellNb” value is given as 321.8.

Regarding `COc1cc(/C=N/NC(=O)c2ccncc2)cc(Br)c1OC` [IPK 000 078 53], the “Primary QIM CellNb” value was found to be 386.0.

With `O=C(N/N=C/c1cccc(Cl)c1Cl)c1ccncc1` [IPK 000 043 10], the “Primary QIM CellNb” value is 176.8.

For `Cc1ccc(NC(=O)c2c(NC(=O)C(F)(F)F)sc3c2CCC3)c(C)c1` [IPK 000 077 22], the “Primary QIM CellNb” value was 84.5.

Take `CCN1C/C(=C\c2ccc3c(c2)OCO3)C(=O)/C(=C/c2ccc3c(c2)OCO3)C1` [IPK 000 102 52]: the “Primary QIM CellNb” value came to 179.8.

With `CC(NC(=O)c1ccc(C(C)(C)C)cc1)c1ccccc1` (centres unmarked) [IPK 000 067 61], the “Primary QIM CellNb” value is 182.0.

`Cc1cccc(NC(=O)c2c(NC(=O)c3ccccc3Cl)sc3c2CCC3)c1` [IPK 000 073 70]: the “Primary QIM CellNb” value stood at 234.0.

As for `O=C(Nc1cc(Cl)cc(Cl)c1)c1cc([N+](=O)[O-])ccc1Cl` [IPK 000 049 20], the “Primary QIM CellNb” value is given as 155.5.

As for `O=[N+]([O-])c1cc2c(cc1/C=N/c1ccc(S(=O)(=O)Nc3nccs3)cc1)OCO2` [IPK 000 057 78], the “Primary QIM CellNb” value is 177.0.

Take `CCOc1ccccc1/C=N/NC(=O)c1ccncc1` [IPK 000 043 27]: the “Primary QIM CellNb” value was 125.8.

System in a further data set: not given
Test: not given
Conditions: not given
In the case of `CNC(=O)c1c(Nc2ccc(F)c(Cl)c2)nc2c(OC)cccn2c1=O`, the melting point was 218 °C (dec.).

In turn, `CS(=O)(=O)O[C@H]1CCN(C(=O)c2cc([N+](=O)[O-])cc([N+](=O)[O-])c2)C1` came in with a melting point of 138 to 140 °C.

On to `COc1cccn2c(=O)c(CO)c(Nc3ccc(F)c(F)c3)nc12`, for which the melting point is 231 °C (dec.).
